Measurements taken from patent US10179770B2, “Quinolines derivatives as novel anticancer agents” (GENOSCIENCE PHARMA, priority 2013, dated 2019).

Assays:
HCT-116 = assay: EC50 determination in cancer cell lines; assay type: cell-based, human; settings: Homo sapiens, HCT-116, 72 h
Experimental: (§1) Compounds were added at different concentrations to each well, and cell cultures were incubated for 72 h. Vehicle (DMSO or H2O) was used as a control, and all compounds were tested in a constant percentage of vehicle. Cell outgrowth was measured using for adherent cells CellTiter […] Aqueous One Solution Cell Proliferation Assay (Promega) and for cell suspension, Sulforhodamine B colorimetric assay as described in Vichai et al. (Vichai, V. and Kirtikara, K. Nat. Protoc. 2006 (1) 1112-1116). Absorbance was measured using an Infinite F200 Pro or Sunrise TECAN plate reader.
(§2) The human melanoma cell line A375, colorectal carcinoma cell line HCT-116, hepatocellular carcinoma cell line HepG2 were cultured in Dulbecco's modified Eagle's medium supplemented with 10% fetal bovine serum and 1% Penicillin-Streptomycin. The human melanoma cell lines SK-MEL-28 and SK-MEL-5 were cultured in Minimum Essential Medium. The colorectal carcinoma cell lines HT-29 and Colo205 were respectively cultured in Mc Coy's and RPMI media. The human leukemia cell lines MV4-11 and KG-1 were cultured in Iscove's Modified Dulbecco's Media. The human leukemia cell line MOLM-14 was cultured in Minimum Essential Medium Alpha Medium supplemented with 10% Fetal Bovine Serum and 1% Penicillin-Streptomycin All culture media were supplemented with 10% fetal bovine serum and 1% Penicillin-Streptomycin except for MV4-11 cell line 20% fetal bovine serum and 1% Penicillin-Streptomycin. All the cell lines were maintained at 37° C. with 5% C02.
Briefly, adherent cells, A375, HCT-116, HepG2, SK-MEL-28, SK-MEL-5, HT-29 and Colo205 cells were respectively plated at 800, 5,000, 7,000, 2,500, 3,000-5,000, 5,000 or 5,000 cells per well onto 96-well plates in 90 μL of media per well and were allowed to grow overnight before the assay. For MV4-11 and KG-1 cells that grow in suspension, 40,000-60,000 cells were plated onto 96-well plates immediately before the assay. MOLM-14 cell line, that grow in suspension, 30,000 cells were plated onto 96-well plates immediately before the assay. […]
(§3) The experimental data are analyzed using a computer program, Graphpad Prism (GraphPad Software, Inc. La Jolla, Calif.) and EC50 values were determined as the dose of compound required to reduce absorbance values to 50% of the signal obtained for vehicle treated cell cultures and were a mean of at least two independent experiments except for EC50 values with (*) where […].

[1] = system: patient derived acute myeloid leukemia (AML) cell lines; assay: Cell growth inhibition assay, patient derived AML cells; assay type: cell-based, human; settings: Homo sapiens, 48 h
Experimental: The patient derived acute myeloid leukemia (AML) cells were obtained after written informed consent under the Institut Paoli Calmette (IPC) institutional review board approval and under the strict compliance of the Helsinki declaration on medical research involving human subjects. […] Each compound was added at different concentrations (combinations of six concentrations) to each well, and cell cultures were incubated for 48 h. Vehicle (H2O) was used as a control, and all compounds were tested in a constant percentage of vehicle. Cell outgrowth was measured using the CellTiter-Glo luminescent cell viability assay as described by the manufacturer (Promega, Ref G7571 Madison, Wis., USA) using a Centro (Berthold, France) plate reader. In each experiment, each point represents the average of triplicates in cell culture. The experimental data are analyzed using a computer program, Graphpad Prism (GraphPad Software, Inc.

SK-MEL-5 = assay: EC50 determination in cancer cell lines; assay type: cell-based; settings: Homo sapiens, 72 h
Experimental: as §1, §2
(§4) Briefly, adherent cells, A375, HCT-116, HepG2, SK-MEL-28, SK-MEL-5, HT-29 and Colo205 cells were respectively plated at 800, 5,000, 7,000, 2,500, 3,000-5,000, 5,000 or 5,000 cells per well onto 96-well plates in 90 μL of media per well and were allowed to grow overnight before the assay. For MV4-11 and KG-1 cells that grow in suspension, 40,000-60,000 cells were plated onto 96-well plates immediately before the assay. MOLM-14 cell line, that grow in suspension, 30,000 cells were plated onto 96-well plates immediately before the assay.
(§5) The cell growth measure was the same as described in example 51.
as §3

HT-29 = assay: EC50 determination in cancer cell lines; assay type: cell-based; settings: Homo sapiens, 72 h, * n>2
Experimental: as §1, §2, §4, §5, §3

MOLM-14 [2] = assay: EC50 determination in cancer cell lines; assay type: cell-based; settings: Homo sapiens, 72 h
Experimental: as §1, §2, §4, §5, §3

MV4-11 = assay: EC50 determination in cancer cell lines; assay type: cell-based; settings: Homo sapiens, 72 h
Experimental: as §1, §2, §4, §5, §3

SK-MEL-28 = assay: EC50 determination in cancer cell lines; assay type: cell-based; settings: Homo sapiens, 72 h
Experimental: as §1, §2, §4, §5, §3

KG-1 = assay: EC50 determination in cancer cell lines; assay type: cell-based; settings: Homo sapiens, 72 h
Experimental: as §1, §2, §4, §5, §3

A375 = assay: Cell proliferation assay at 10 μM; assay type: cell-based, human; settings: Homo sapiens, A-375, 72 h, read-out: Cell viability observed at 10 μM
How it was run: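 A375 and HCT-116 cells grown in DMEM with 10% FBS, seeded overnight, then exposed to compound at 10 μM for 72 h at 37 °C, 5% CO2 against vehicle control. Outgrowth read by MTS (CellTiter 96 Aqueous One) absorbance; each point the mean of two replicates.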

MOLM-14 [3] = assay: Cell proliferation assay at 10 μM; assay type: cell-based, human; settings: Homo sapiens, MOLM-14, 72 h, read-out: Cell viability observed at 10 μM
How it was run: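 MOLM-14 suspension cells (30,000/well, MEM alpha with 10% FBS) treated with compound at 10 μM, constant vehicle percentage, for 72 h at 37° C. Outgrowth measured by sulforhodamine B absorbance; each point is mean of two replicates.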

[4] = system: PBMC Healthy voluntary donor; assay: Cell growth inhibition assay, PBMC of healthy donors; assay type: cell-based, human; settings: Homo sapiens, PBMC
Experimental: Each compound was added at different concentrations (combinations of six concentrations) to each well, and cell cultures were incubated for 48 h. Vehicle (H2O) was used as a control, and all compounds were tested in a constant percentage of vehicle. Cell outgrowth was measured using the CellTiter-Glo luminescent cell viability assay as described by the manufacturer (Promega, Ref G7571 Madison, Wis., USA) using a Centro (Berthold, France) plate reader. In each experiment, each point represents the average of triplicates in cell culture. The experimental data are analyzed using a computer program, Graphpad Prism (GraphPad Software, Inc.

SMILES	EC50 (HCT-116)	EC50 ([1]; Patient 3, subtype Tri8)	EC50 ([1]; Patient 8, subtype FLT3−)	EC50 ([1]; Patient 9, subtype FLT3+)	EC50 ([1]; Patient 10, subtype Inv 3)	EC50 ([1]; Patient 12, subtype 5 & 7)	EC50 ([1]; Patient 13, subtype MLL)	EC50 ([1]; Patient 16, subtype Inv 3)	EC50 (SK-MEL-5)	EC50 (HT-29)	EC50 (MOLM-14 [2])	EC50 (MV4-11)	EC50 (SK-MEL-28)	EC50 (KG-1)	viability at 10 µM (A375)	viability at 10 µM (MOLM-14 [3])	EC50 ([4]; PBMC Healthy voluntary donor 2)	EC50 ([4]; PBMC Healthy voluntary donor 1)
CCN(CC)C1CCN(C(C)c2cc(-c3ccccc3)nc3ccccc23)CC1.Cl.Cl (stereo not drawn) [XIX-3, 2-phenyl-4-{1-[4-(N,N-diethylamino)piperidin-1-yl]-eth-1-yl}quinoline dihydrochloride]	12 µM	8 µM	21 µM	18 µM	28 µM	16 µM	16 µM	22 µM	6 µM	18 µM	11 µM	9 µM	6 µM	14 µM	< 20%	20 to 40%	21 µM	
CCN(CC)C1CCN(C(C)c2cc(-c3ccc4ccccc4c3)nc3ccccc23)CC1.Cl.Cl (stereo not drawn) [XXIV-3, 2-(2-naphtyl)-4-{1-[4-(N,N-diethylamino)-piperidin-1-yl]-eth-1-yl}quinoline dihydrochloride]	4 µM	2 µM	10 µM	17 µM	13 µM	11 µM	8 µM	6 µM	3 µM	7 µM	4 µM	3 µM	3 µM	4 µM	< 20%	< 20%	7 µM	8 µM
Cc1ccc(-c2cc(N3CCC(NC(C)(C)C)CC3)c3ccccc3n2)cc1.Cl.Cl [XIII-8, 2-(4-methyl-phenyl)-4-(4-N-tert-butylamino-piperidin-1-yl)quinoline dihydrochloride]	8 µM	15 µM	27 µM	22 µM	35 µM	21 µM	25 µM	24 µM	7 µM	16 µM	3 µM	2 µM	5 µM	9 µM	< 20%	< 20%	16 µM	42 µM
CC(C)(C)NC1CCN(c2cc(-c3ccc(Cl)cc3)nc3ccccc23)CC1.Cl.Cl [XII-4, 2-(4-chloro-phenyl)-4-(4-N-tert-butylamino-piperidin-1-yl)quinoline dihydrochloride]		5 µM	21 µM	> 40 µM	25 µM	> 40 µM	27 µM	19 µM	5 µM		3 µM	2 µM	3 µM	4 µM	< 20%	< 20%	15 µM	43 µM
